From patent US20260184687A1, “DIHYDROINDENE DERIVATIVES AS MALT1 INHIBITORS” (C4X Discovery Limited, priority 2022, published 2026)

Experiments:
[1] = test system: IL-2 release from stimulated Jurkat cells; experiment: Human IL-2 Release Phenotypic Assay (Assay 3); type: cell-based; conditions: Jurkat cells (clone E6-1), 200 ng/mL PMA + 300 ng/mL ionomycin, IL-2 by ELISA
Procedure, shortened: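 IC50 values were fitted by 4-parameter non-linear regression to IL-2 release from Jurkat E6-1 cells. Those cells were stimulated for 48 h with PMA (200 ng/mL) plus ionomycin (300 ng/mL) after a 30-min compound pre-incubation at half-log doses in 0.5% DMSO. Cells had been plated at 50 000/well overnight at 37° C.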

[2] = target: T1, FL hMALT1 enzyme (Homo sapiens, UniProt Q9UDY8); experiment: biochemical;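 also: Cell-free protease assay: enzyme preincubated with compound 30 min at room temperature, then cleavage of fluorogenic Ac-LVSR-AMC substrate (100 µM) tracked by fluorescence (ex 360/em 460 nm)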
T1 sequence (Q9UDY8 1-824): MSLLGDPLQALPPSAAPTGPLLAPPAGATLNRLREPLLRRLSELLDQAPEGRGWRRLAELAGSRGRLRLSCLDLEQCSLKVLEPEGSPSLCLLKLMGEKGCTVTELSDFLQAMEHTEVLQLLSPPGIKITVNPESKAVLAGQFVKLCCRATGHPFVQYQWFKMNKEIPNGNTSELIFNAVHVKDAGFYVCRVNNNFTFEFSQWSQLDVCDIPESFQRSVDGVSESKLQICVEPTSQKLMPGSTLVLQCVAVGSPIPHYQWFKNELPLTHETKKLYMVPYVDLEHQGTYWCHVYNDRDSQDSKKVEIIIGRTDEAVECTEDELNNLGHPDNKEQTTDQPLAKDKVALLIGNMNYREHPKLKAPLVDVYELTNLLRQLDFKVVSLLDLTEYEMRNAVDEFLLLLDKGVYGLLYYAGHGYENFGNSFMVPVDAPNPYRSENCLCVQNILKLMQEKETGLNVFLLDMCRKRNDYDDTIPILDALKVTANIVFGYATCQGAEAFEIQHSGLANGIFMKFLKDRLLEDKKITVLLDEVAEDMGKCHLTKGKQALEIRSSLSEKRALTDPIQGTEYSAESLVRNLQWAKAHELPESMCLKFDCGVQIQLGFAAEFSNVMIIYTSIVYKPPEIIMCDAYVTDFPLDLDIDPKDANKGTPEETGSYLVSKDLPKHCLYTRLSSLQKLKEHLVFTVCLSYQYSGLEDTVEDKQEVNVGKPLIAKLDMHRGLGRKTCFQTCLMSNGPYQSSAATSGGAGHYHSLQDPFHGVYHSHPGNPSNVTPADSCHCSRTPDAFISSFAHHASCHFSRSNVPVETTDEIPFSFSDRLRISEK

SMILES | IC50 ([1]; Homo sapiens, Jurkat, 48 h) [nM] | IC50 [2] [nM] | IC50 ([1]; 48 hours) [nM]
CN(C(=O)C1CN(S(C)(=O)=O)C1)[C@@H](c1ccc(NC2Cc3ccccc3C2(C)C)cn1)C(F)(F)F (single isomer, unassigned) [Example 209] | 380 | 52 | 
CN(C(=O)C1C2CS(=O)(=O)CC21)[C@@H](c1ccc(NC2Cc3ccccc3C2(C)C)cn1)C(F)(F)F (single isomer, unassigned) [Example 215] |  | 88 | 630
CN(C(=O)C1C2CS(=O)(=O)CC21)[C@@H](c1ccc(NC2Cc3ccccc3C2(C)C)cn1)C(F)(F)F (single isomer, unassigned) [Example 216] |  | 51 | 1900
CN1C(=O)CCC1C(=O)N(C)[C@@H](c1ccc(N[C@H]2Cc3ccccc3C2(C)C)cn1)C(F)(F)F (single isomer, unassigned) [Example 225] |  | 63 | 520
CN1C(=O)CCC1C(=O)N(C)[C@@H](c1ccc(N[C@H]2Cc3ccccc3C2(C)C)cn1)C(F)(F)F (single isomer, unassigned) [Example 226] |  | 39 | 250
CNC(=O)N1CC(C(=O)N(C)[C@@H](c2ccc(NC3Cc4ccccc4C3(C)C)cn2)C(F)(F)F)C1 (single isomer, unassigned) [Example 227] |  | 18 | 99
CNC(=O)N1CC(C(=O)N(C)[C@@H](c2ccc(NC3Cc4ccccc4C3(C)C)cn2)C(F)(F)F)C1 (single isomer, unassigned) [Example 228] |  | 57 | 1000
CN(C(=O)C1CC2(CCC(=O)N2)C1)[C@@H](c1ccc(NC2Cc3ccccc3C2(C)C)cn1)C(F)(F)F (single isomer, unassigned) [Example 230] | 340 | 38 | 
CN(C(=O)C1CC2(CCC(=O)N2)C1)[C@@H](c1ccc(NC2Cc3ccccc3C2(C)C)cn1)C(F)(F)F (single isomer, unassigned) [Example 232] |  | 30 | 180
CC(=O)N1CCC12CC(C(=O)N(C)[C@@H](c1ccc(NC3Cc4ccccc4C3(C)C)cn1)C(F)(F)F)C2 (single isomer, unassigned) [Example 235] | 1000 | 60 | 
COCCN1CCC12CC(C(=O)N(C)[C@@H](c1ccc(NC3Cc4ccccc4C3(C)C)cn1)C(F)(F)F)C2 (single isomer, unassigned) [Example 243] | 640 | 86 | 
CN(C(=O)C1CC2(CCN2CCO)C1)[C@@H](c1ccc(NC2Cc3ccccc3C2(C)C)cn1)C(F)(F)F (single isomer, unassigned) [Example 249] | 350 | 50 | 
CN1CCC(C(=O)N(C)[C@@H](c2ccc(N[C@H]3Cc4ccccc4C3(C)C)cn2)C(F)(F)F)CC1=O (single isomer, unassigned) [Example 250] | 300 | 41 | 
CN1CCC(C(=O)N(C)[C@@H](c2ccc(N[C@H]3Cc4ccccc4C3(C)C)cn2)C(F)(F)F)CC1=O (single isomer, unassigned) [Example 251] |  | 32 | 320
CN1CC(C(=O)N(C)[C@@H](c2ccc(N[C@H]3Cc4ccccc4C3(C)C)cn2)C(F)(F)F)CCC1=O (single isomer, unassigned) [Example 252] | 590 | 71 | 
CN1CC(C(=O)N(C)[C@@H](c2ccc(N[C@H]3Cc4ccccc4C3(C)C)cn2)C(F)(F)F)CCC1=O (single isomer, unassigned) [Example 253] |  | 66 | 420
CN(C(=O)C1CCS(=O)(=O)CC1)[C@@H](c1ccc(NC2Cc3cccc(C4CC4)c3C2)cn1)C(F)(F)F (single isomer, unassigned) [Example 254] | 1400 | 53 | 
CN(C(=O)C1CCS(=O)(=O)CC1)[C@@H](c1ccc(NC2Cc3ccc(F)c(F)c3C2)cn1)C(F)(F)F (single isomer, unassigned) [Example 261] |  | 82 | 1410
CN(C(=O)C1CCS(=O)(=O)CC1)[C@@H](c1ccc(NC2Cc3ccc(F)c(F)c3C2)cn1)C(F)(F)F (single isomer, unassigned) [Example 262] |  | 2680 | 7700

SMILES | IC50 ([1]; Homo sapiens, Jurkat, 48 h) [nM] | IC50 [2] [nM] | IC50 ([1]; 48 hours) [nM]
CN(C(=O)C1CCS(=O)(=O)CC1)[C@@H](c1ccc(NC2Cc3cccc(Cl)c3C2)cn1)C(F)(F)F (single isomer, unassigned) [Example 263] | 510 | 61 | 
CN(C(=O)C1CCS(=O)(=O)CC1)[C@@H](c1ccc(NC2Cc3ccc(F)c(Cl)c3C2)cn1)C(F)(F)F (single isomer, unassigned) [Example 265] | 220 | 32 | 
CN(C(=O)C1CCS(=O)(=O)CC1)[C@@H](c1ccc(NC2Cc3cc(Cl)cc(F)c3C2)cn1)C(F)(F)F (single isomer, unassigned) [Example 270] | 270 | 81 | 
CN(C(=O)C1CCS(=O)(=O)CC1)[C@@H](c1ccc(NC2Cc3ccc(Cl)c(F)c3C2)cn1)C(F)(F)F (single isomer, unassigned) [Example 277] | 200 | 43 | 
CN(C(=O)C1CCS(=O)(=O)CC1)[C@@H](c1ccc(NC2Cc3ccc(Cl)c(Cl)c3C2)cn1)C(F)(F)F (single isomer, unassigned) [Example 279] | 96 | 15 | 
CN(C(=O)C1CCS(=O)(=O)CC1)[C@@H](c1ccc(NC2Cc3cccc(C(F)(F)F)c3C2)nc1)C(F)(F)F (single isomer, unassigned) [Example 281] | 460 | 14 | 
CN(C(=O)C1CCS(=O)(=O)CC1)[C@@H](c1ccc(NC2Cc3ccc(Br)cc3C2)cn1)C(F)(F)F (single isomer, unassigned) [Example 284] | 490 | 85 | 
CN(C(=O)C1CCS(=O)(=O)CC1)[C@@H](c1ccc(NC2Cc3ccc(Cl)cc3C2)nc1)C(F)(F)F (single isomer, unassigned) [Example 289] | 300 | 45 | 
CN(C(=O)C1CCS(=O)(=O)CC1)[C@@H](c1ccc(NC2Cc3c(F)ccc(Cl)c3C2)cn1)C(F)(F)F (single isomer, unassigned) [Example 293] | 460 | 55 | 
CN(C(=O)C1CCS(=O)(=O)CC1)[C@@H](c1ccc(NC2Cc3ccc(Cl)c(C4CC4)c3C2)cn1)C(F)(F)F (single isomer, unassigned) [Example 306] | 200 | 9 | 
CN(C(=O)C1CCS(=O)(=O)CC1)[C@@H](c1ccc(NC2Cc3ccc(Cl)c(C(F)(F)F)c3C2)cn1)C(F)(F)F (single isomer, unassigned) [Example 312] | 350 | 15 | 
CN(C(=O)C1CCNC(=O)C1)[C@@H](c1ccc(N[C@H]2Cc3ccc(Cl)cc3C2)cn1)C(F)(F)F (single isomer, unassigned) [Example 314] | 380 | 150 | 
CN(C(=O)[C@@H]1CNC(=O)C1)[C@@H](c1ccc(NC2Cc3ccc(Cl)c(F)c3C2)cn1)C(F)(F)F (single isomer, unassigned) [Example 317] | 113 | 72 | 
CN(C(=O)[C@@H]1CNC(=O)C1)[C@@H](c1ccc(NC2Cc3ccc(Cl)c(Cl)c3C2)cn1)C(F)(F)F (single isomer, unassigned) [Example 319] | 66 | 24 | 
CN(C(=O)[C@H]1CCC(=O)NC1)[C@@H](c1ccc(NC2Cc3ccc(Cl)c(Cl)c3C2)cn1)C(F)(F)F (single isomer, unassigned) [Example 321] | 86 | 25 | 
CN(C(=O)C12CC(NS(C)(=O)=O)(C1)C2)[C@@H](c1ccc(NC2Cc3ccc(Cl)c(Cl)c3C2)cn1)C(F)(F)F (single isomer, unassigned) [Example 323] | 100 | 14 | 
CN(C(=O)C1CCN(S(C)(=O)=O)CC1)[C@@H](c1ccc(NC2Cc3ccc(Cl)c(Cl)c3C2)cn1)C(F)(F)F (single isomer, unassigned) [Example 325] | 35 | 9 | 
CN(C(=O)[C@@H]1CNC(=O)C1)[C@@H](c1ccc(NC2Cc3ccc(Cl)c(C4CC4)c3C2)cn1)C(F)(F)F (single isomer, unassigned) [Example 328] | 240 | 18 | 
CN(C(=O)[C@H]1CCC(=O)NC1)[C@@H](c1ccc(NC2Cc3ccc(Cl)c(C4CC4)c3C2)cn1)C(F)(F)F (single isomer, unassigned) [Example 330] | 220 | 16 | 
